Reference: patent US5032680A (priority 1988, dated 1991)

What was measured:
[1] = tested on: Mouse transplantable tumour Sarcoma 180 cells; assay: Measurement of antitumour activity value (Sarcoma 180 subcutaneously transplanted, oral administration); assay type: in vivo, male ICR/JCL mice; settings: once a day for 9 consecutive days, tumour weight on day 12, Sarcoma 180, ICR/JCL mice; for ED50 (dose at which tumour proliferation-inhibitory rate is over 50%): 17280 min
Protocol: Mouse transplantable tumour Sarcoma 180 cells (5×10^6 cells) were transplanted subcutaneously into male ICR/JCL mice (weighing 27-30 g) in the back. The test compounds were dissolved or suspended in a 0.5 weight % aqueous solution of CMC containing Tween 80 at the concentration of 0.1 weight % to afford test preparations. Using 7 animals per group, the test preparations were orally administered to each mouse at the dose of 0.1 ml/10 g mouse body weight once a day for consecutive 9 days from the following day of the day when the tumours were transplanted.
On the twelfth day from the day of tumour-transplantation, the average weight of tumours for each of the test compounds at the respective doses was measured. The weight was compared with the average weight of the tumours of the control group, and the tumour proliferation-inhibitory rates of the test compounds based on that of the control group were estimated at the respective dose.

tumour = settings: cited from earlier work
[2] = in vivo; cited from earlier work
[3] = in vivo; cited from earlier work; remark: listed apart in the source

Row | Compound | ED50 (dose at which tumour proliferation-inhibitory rate is over 50%) [1] | other results
1 | O=c1[nH]c(=O)n([C@H]2C[C@H](O)[C@@H](COP(=O)(Oc3ccccc3)Oc3ccccc3)O2)cc1F [Ex. 1, diphenyl 2'-deoxy-5-fluoro-5'-uridylate] | 11.1 mg/kg | –
2 | O=C(c1ccccc1)n1c(=O)c(F)cn([C@H]2C[C@H](O)[C@@H](COP(=O)(Oc3ccccc3)Oc3ccccc3)O2)c1=O [Ex. 3, diphenyl 3-benzoyl-2'-deoxy-5-fluoro-5'-uridylate] | 7.0 mg/kg | –
3 | CC(C)=CCCC(C)CCOP(=O)(OC[C@H]1O[C@@H](n2cc(F)c(=O)[nH]c2=O)C[C@@H]1O)Oc1ccccc1 (stereo partly drawn) [Ex. 5, citroneryl phenyl 2'-deoxy-5-fluoro-5'-uridylate] | 23.8 mg/kg | –
4 | Cc1cc(OP(=O)(OC[C@H]2O[C@@H](n3cc(F)c(=O)[nH]c3=O)C[C@@H]2O)Oc2ccccc2)ccc1Cl (stereo partly drawn) [Ex. 6, 4-chloro-3-methylphenyl phenyl 2'-deoxy-5-fluoro-5'-uridylate] | 6.2 mg/kg | –
5 | O=c1[nH]c(=O)n([C@H]2C[C@H](O)[C@@H](COP(=O)(Oc3ccc(Cl)cc3)Oc3ccc(Cl)cc3)O2)cc1F [Ex. 7, di-p-chlorophenyl 2'-deoxy-5-fluoro-5'-uridylate] | 1.4 mg/kg | –
6 | O=c1[nH]c(=O)n([C@H]2C[C@H](O)[C@@H](COP(=O)(Oc3ccccc3Cl)Oc3ccccc3Cl)O2)cc1F [Ex. 8, Di-o-chlorophenyl 2'-deoxy-5-fluoro-5'-uridylate] | 10.0 mg/kg | –
7 | O=c1[nH]c(=O)n([C@H]2C[C@H](O)[C@@H](COP(=O)(Oc3cccc(Cl)c3)Oc3cccc(Cl)c3)O2)cc1F [Ex. 9, Di-m-chlorophenyl 2'-deoxy-5-fluoro-5'-uridylate] | 1.4 mg/kg | –
8 | O=c1[nH]c(=O)n([C@H]2C[C@H](O)[C@@H](COP(=O)(Oc3cccc(Cl)c3Cl)Oc3cccc(Cl)c3Cl)O2)cc1F [Ex. 10, Di(2,3-dichlorophenyl) 2'-deoxy-5-fluoro-5'-uridylate] | 3.6 mg/kg | –
9 | O=c1[nH]c(=O)n([C@H]2C[C@H](O)[C@@H](COP(=O)(Oc3ccc(Cl)cc3Cl)Oc3ccc(Cl)cc3Cl)O2)cc1F [Ex. 11, Di(2,4-dichlorophenyl) 2'-deoxy-5-fluoro-5-uridylate] | 1.5 mg/kg | –
10 | O=c1[nH]c(=O)n([C@H]2C[C@H](O)[C@@H](COP(=O)(Oc3ccc(Cl)c(Cl)c3)Oc3ccc(Cl)c(Cl)c3)O2)cc1F [Ex. 12, Di(3,4-dichlorophenyl) 2'-deoxy-5-fluoro-5'-uridylate] | 2.5 mg/kg | –
11 | O=c1[nH]c(=O)n([C@H]2C[C@H](O)[C@@H](COP(=O)(Oc3ccc4c(c3)OCO4)Oc3ccc4c(c3)OCO4)O2)cc1F [Ex. 13, Di(3,4-methylenedioxyphenyl) 2'-deoxy-5-fluoro-5'-uridylate] | 25.0 mg/kg | –
12 | N#Cc1ccc(OP(=O)(OC[C@H]2O[C@@H](n3cc(F)c(=O)[nH]c3=O)C[C@@H]2O)Oc2ccc(C#N)cc2)cc1 [Ex. 16, Di-p-cyanophenyl 2'-deoxy-5-fluoro-5'-uridylate] | 6.1 mg/kg | –
13 | O=c1[nH]c(=O)n([C@H]2C[C@H](O)[C@@H](COP(=O)(Oc3ccc(F)cc3)Oc3ccc(F)cc3)O2)cc1F [Ex. 17, Di-p-fluorophenyl 2'-deoxy-5-fluoro-5'-uridylate] | 1.3 mg/kg | –
14 | O=c1[nH]c(=O)n([C@H]2C[C@H](O)[C@@H](COP(=O)(Oc3ccc(Br)cc3)Oc3ccc(Br)cc3)O2)cc1F [Ex. 18, Di-p-bromophenyl 2'-deoxy-5-fluoro-5'-uridylate] | 1.2 mg/kg | –
15 | O=c1[nH]c(=O)n([C@H]2C[C@H](O)[C@@H](COP(=O)(Oc3ccc(C(F)(F)F)cc3)Oc3ccc(C(F)(F)F)cc3)O2)cc1F [Ex. 19, Di-p-trifluoromethylphenyl 2'-deoxy-5-fluoro-5'-uridylate] | 0.9 mg/kg | –
16 | CC(=O)O[C@H]1C[C@H](n2cc(F)c(=O)[nH]c2=O)O[C@@H]1COP(=O)(Oc1ccc(Cl)cc1)Oc1ccc(Cl)cc1 [Ex. 22, di-p-chlorophenyl 3'-acetyl-2'-deoxy-5-fluoro-5'-uridylate] | 1.2 mg/kg | –
17 | O=c1[nH]c(=O)n([C@H]2C[C@H](O)[C@@H](COP(=O)(Oc3ccc([N+](=O)[O-])cc3)Oc3ccc([N+](=O)[O-])cc3)O2)cc1F [Ex. 24, di-p-nitrophenyl 2'-deoxy-5-fluoro-5'-uridylate] | 5.4 mg/kg | –
18 | O=c1[nH]c(=O)n([C@H]2C[C@H](O)[C@@H](COP(=O)(Sc3ccc(Cl)cc3)Sc3ccc(Cl)cc3)O2)cc1F [Ex. 26, 2'-deoxy-5-fluorouridine 5'-(S,S-di-p-chlorophenylphosphorodithioate)] | 4.2 mg/kg | –
19 | O=c1[nH]c(=O)n([C@H]2C[C@H](O)[C@@H](CO)O2)cc1F [FdUrd, 2'-deoxy-5-fluorouridine] | – | tumour proliferation-inhibitory action (in words) (tumour; cytostatic potency test (in vivo)): extremely potent tumour proliferation-inhibitory action; effect as compared with 5-fluorouracil (in words) (tumour; in vivo): can not be found to exhibit any particular superior effects as compared with 5-fluorouracil; ED50 ([1]; Mus musculus, 288 h, read-out: ED50 (dose at which tumour proliferation-inhibitory rate is over 50%)): 59.5 mg/kg; toxicity of FdUrd (in words) [2]: the toxicity thereof is strong; decomposition into 5-fluorouracil (in words) [3]: a large portion thereof is decomposed into 5-fluorouracil; metabolism and excretion (in words) [3]: rapidly metabolized and excreted
